Experimental data as given in paper PMC8198190, “The PFKFB3 Inhibitor AZ67 Inhibits Angiogenesis Independently of Glycolysis Inhibition” (International Journal of Molecular Sciences, 2021).
pKd: −log10 of the molar value.

Target: T1, PFKFB3 (6-phosphofructo-2-kinase/fructose-2,6-bisphosphatase-3) (Homo sapiens, UniProt Q16875)
T1 construct: recombinant human PFKFB3 produced in E. coli
Test: isothermal titration calorimetry (MicroCal Peaq-ITC, […] °C, triplicate)
Assay type: binding

T1 sequence (Q16875 whole entry): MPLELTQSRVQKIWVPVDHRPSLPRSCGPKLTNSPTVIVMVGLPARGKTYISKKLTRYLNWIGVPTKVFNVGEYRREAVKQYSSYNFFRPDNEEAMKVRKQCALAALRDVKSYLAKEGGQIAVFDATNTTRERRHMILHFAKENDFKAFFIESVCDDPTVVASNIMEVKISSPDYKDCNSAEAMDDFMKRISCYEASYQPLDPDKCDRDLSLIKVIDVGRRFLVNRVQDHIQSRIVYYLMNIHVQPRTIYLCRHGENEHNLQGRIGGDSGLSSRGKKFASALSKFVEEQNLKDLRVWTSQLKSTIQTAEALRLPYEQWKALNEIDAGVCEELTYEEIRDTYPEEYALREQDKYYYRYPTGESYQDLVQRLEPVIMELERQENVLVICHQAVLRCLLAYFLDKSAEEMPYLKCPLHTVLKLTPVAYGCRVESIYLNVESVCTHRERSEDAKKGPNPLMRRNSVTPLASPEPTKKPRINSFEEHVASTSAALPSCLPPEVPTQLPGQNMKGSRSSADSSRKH

pKd: 6.77
Compound: Cc1noc(C)c1Cn1cc(C#N)c2cc(Oc3ccc(NC(=O)[C@@H]4CCCN4)cc3)ccc21 [AZ67]
